This is an account of results in PubChem BioAssay (NCI).

For this experiment, the system named is MDA-MB-468 breast. The experiment can be described thus: DTP human tumour cell line panel, 48 h.

The structures appear in SMILES notation. Several values for one entry are separate records, joined by “and”; a condition that tells them apart may be missing. Equal entries are not always repeated.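 Cultured in 96-well plates, cells were exposed to test compound for 48 hours across five concentrations. GI50 marks 50% less growth. Definition used: TGI = concentration required for complete inhibition of growth.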 Where only a bound is given, the exact number is not on record here.

With `COC(=O)c1c(C)[nH]c(/C=C2\N=C(c3ccc[nH]3)C=C2OC)c1C`, the GI50 was 1200 nM and the TGI was found to be 2.73 µM.
With `CCN(CC)CCCC(C)Nc1cnc(C(=O)Nc2cccc3ccc(OC)nc23)cn1` (stereo not drawn), the GI50 is 1580 nM and the TGI was determined as 3.19 µM.
Take `CC[CH2][Sn]([Cl])([Cl])[CH2]CC.Oc1ccccc1C=NCCN=Cc1ccccc1O`: the GI50 is 1510 nM and the TGI is 3.27 µM.
For `CC[C@H](C)[C@H]1O[C@]2(C=C[C@@H]1C)C[C@@H]1C[C@@H](C/C=C(\C)[C@@H](O[C@H]3C[C@H](OC)[C@@H](O[C@H]4C[C@H](OC)[C@@H](NC)[C@H](C)O4)[C@H](C)O3)[C@@H](C)/C=C/C=C3\CO[C@@H]4[C@H](O)C(C)=C[C@@H](C(=O)O1)[C@]34O)O2`, the GI50 is 1460 nM and the TGI amounted to 3.17 µM.
`Cn1c2ccccc2c2c3[nH]c(=O)[nH]c(=O)c3c3c4ccccc4n(C)c3c21`: the GI50 is 3510 nM and the TGI turned out to be 29.1 µM.
Consider `COc1ccc2nc3cc(Cl)ccc3c(NCCN)c2c1`, for which the GI50 is 1840 nM and the concentration for total growth inhibition (TGI) was 3.79 µM.
Consider `C/C(=N\Nc1ccc(Cl)cn1)c1ccccn1`, for which the GI50 is 65.5 nM and the TGI was 0.293 µM.
Taken in the same sequence, the figures for `CC(C)(O)c1cncc(-c2ccc3ncc(C#N)c(N4CCc5cc(F)c(Cl)cc54)c3c2)c1` were 11800 nM and 30.6 µM.
In the case of `CCCn1cnc2c(c1=N)C(c1ccc(F)cc1)c1sc3c(C)cccc3c1O2` (stereo not drawn), the GI50 is 1290 nM and the TGI came out at 19.2 µM.
The matching figures for `Cc1c2cc(O)c(=O)cc-2oc2cc(O)c(O)cc12`: over 100000 nM and over 100 µM.
The matching figures for `Nc1nc(-c2cccc(Cl)c2)c(-c2ccc3ncccc3n2)s1`: over 15700 nM and over 25 µM.
Turning to `O=C(/C(=C/c1cccc([N+](=O)[O-])c1)c1ccccc1)c1ccccc1`, the GI50 is 2700 nM and the TGI was determined as 8.8 µM.
Taken in the same sequence, the figures for `COC(=O)C12C3C4C1C1C2C3C41NC(=O)c1csc([C@@H](C[C@H](C(C)C)N(C)C(=O)[C@@H](NC(=O)[C@H]2CCCCN2C)C2CC2)OC(C)=O)n1` (stereo partly drawn) were 19.8 nM and 31.5 µM.
For `CON(C)C(=O)N1N=C(c2cc(F)ccc2F)SC1(CCCN)c1ccccc1` (stereo not drawn), the GI50 is under 10 nM; the TGI was 1.57 µM and 0.456 µM.
Turning to `Fc1ccc(-c2nn3ncccc3c2-c2ccnc(Nc3ccc4c(c3)OCCO4)n2)cc1`, the GI50 is 624 nM and the TGI stood at 3.24 µM.
Taken in the same sequence, the figures for `COc1ccc(OC)c(C(=O)c2oc3ccc(Br)cc3c2N)c1` were 206 nM and 5.22 µM.
On to `COc1ncc(-c2ccc3ncnc(Nc4cccc(Cl)c4)c3c2)cc1NS(=O)(=O)CCN1CCOCC1`, for which the GI50 was under 10 nM and the concentration for total growth inhibition (TGI) is 0.437 µM.
Taken in the same sequence, the figures for `C=C(C)C1CCC2(C(=O)O)CCC3(C)C(CCC4C5(C)CCC(OC(=O)NCc6ccccc6)C(C)(C)C5CCC43C)C12` (stereo not drawn) were 1730 nM and 34.7 µM.
The matching figures for `CCCCCN(CCCCC)CC(O)c1ccc(Cl)c2ccccc12` (stereo not drawn): 11100 nM and 24 µM.
Taken in the same sequence, the figures for `Cc1ccc(C(=O)Nc2ccc(CN3CCN(C)CC3)c(C(F)(F)F)c2)cc1C#Cc1cnc(N)c2ccccc12` were 620 nM and 1.64 µM.
As for `COc1cc(/C=C2\CCCC3=C2NC(C)=NC3c2cc(OC)c(OC)c(OC)c2)cc(OC)c1OC` (stereo not drawn), the GI50 was 1180 nM and the TGI was found to be 3.91 µM.
The matching figures for `COc1cc(NS(=O)(=O)c2ccc(-c3cnc(C4CC4)o3)cc2)ccc1F`: 122 nM and 11.3 µM.
As for `COc1ccc(-c2nnc(COc3ccc(NC(=O)Nc4ccc(Cl)c(C(F)(F)F)c4)cc3F)o2)cc1`, the GI50 is 2270 nM and the TGI came to 8.6 µM.
With `N#Cc1cccc(NC(=O)c2cc(-c3ccc(F)cc3F)ccc2O)c1`, the GI50 was 1660 nM and 1450 nM; the TGI is 5.94 µM and 6.4 µM.
Consider `O=C1/C(=C/c2ccc(O)cc2)CSc2ccc(Cl)cc21`, for which the GI50 was 4840 nM and the TGI was 28 µM.
For the molecule `Cc1cc(O)c(C(C)(C)C)cc1Sc1cc(C(C)(C)C)c(O)cc1C`, the GI50 was 2090 nM and the TGI is 5.12 µM.
The matching figures for `Cc1ccc2c3c(c(=O)[nH]c2c1)C1(C(C#N)=C(N)O3)c2cc(Br)ccc2-c2ccc(Br)cc21`: 1640 nM and 3.55 µM.
Taken in the same sequence, the figures for `CCc1oc2ccccc2c1C(=O)c1cc(I)c(O)c(I)c1` were 2380 nM and 8.5 µM.
The matching figures for `Cc1ccc(NC(=O)NCCCOc2ccc(N3C(N)=NC(N)=NC3(C)C)cc2Cl)cc1S(=O)(=O)F`: 17300 nM and over 100 µM.
Take `Cc1ccc(NC(=O)c2sc3nc(C)c(C(O)c4ccccc4)cc3c2N)cc1` (stereo not drawn): the GI50 is 349 nM and the TGI turned out to be 50.7 µM.
Consider `CN1CCN(c2ccc(Nc3nc(NCCCNS(=O)(=O)c4ccc(C(F)(F)F)cc4)c4sccc4n3)cc2)CC1`, for which the GI50 was 1730 nM and the TGI stood at 3.56 µM.
Taken in the same sequence, the figures for `CCOC(=O)c1c(C)nc2c(c1N)/C(=C/c1ccc(OC)cc1)C(=O)N2Cc1ccc(F)cc1` were 194 nM and 0.65 µM.
Taken in the same sequence, the figures for `CC1(C)N=C(N)N=C(N)N1c1ccc(OCc2ccc(S(=O)(=O)F)c(Cl)c2)c(Cl)c1` were 2290 nM and over 100 µM.
Taken in the same sequence, the figures for `COC(=O)[C@H](Cc1c[nH]c2ccccc12)NC(=O)[C@@H](OC)[C@@H]1Cc2cc3cc(OC4CC(OC5CC(O)C(O)C(C)O5)C(O)C(C)O4)c(C)c(O)c3c(O)c2C(=O)[C@H]1OC1CC(OC2CC(OC3CC(C)(O)C(O)C(C)O3)C(O)C(C)O2)C(O)C(C)O1` (stereo partly drawn) were 3.21 nM and 0.011 µM.
Take `O=C(/C=C\n1cnc(-c2cc(C(F)(F)F)cc(C(F)(F)F)c2)n1)NNc1cnccn1`: the GI50 is 92.3 nM and the TGI came to 0.657 µM.
The matching figures for `C=C1C(=O)O[C@H]2[C@H]1CC/C(COC(=O)c1cc3ccccc3s1)=C\CC[C@@]1(C)O[C@@H]21`: 1630 nM and 3.95 µM.
Consider `CC(C)(C)c1cc(NC(=O)Cc2ccc(-c3cnc4cc(-c5cnn(CCN6CCOCC6)c5)ccc4n3)cc2)no1`, for which the GI50 is 700 nM and 796 nM and 111 nM; the TGI was 50 µM and > 100 µM and > 3 µM.
On to `C=C[C@H]1C[C@@H]2C[C@@H]3[C@H]4C/C=C\C(=O)NCCCC5NC(=O)C(=C(O)/C=C/[C@@H]4CC(=O)[C@H]3[C@@H]2[C@H]1C)C5=O` (stereo partly drawn), for which the GI50 was 1590 nM and the TGI turned out to be 3.09 µM.
Consider `O=S1(=O)N(CCNc2nccc(-c3c(-c4cccc(O)c4)nc4sccn34)n2)CCN1Cc1ccccc1`, for which the GI50 was 8460 nM and the TGI stood at 27.9 µM.

As a reminder, the GI50 is the concentration giving 50% growth inhibition. In general, TGI refers to the concentration at which net growth stops. A higher TGI goes with less potent growth arrest.
